target: T1, human RORgT (Homo sapiens, UniProt P51449); assay: RORgT Gal4 Luciferase Reporter Gene Assay; type: cell-based; settings: engineered Jurkat cells overexpressing RORgT (LBD or full length) fused with Gal4 Luc reporter; 18 hours incubation
T1 construct: expressed in transfected cells; host or cells: engineered Jurkat cells (Jurkat pEx/Gal/hRORγ CLBD/HYG pG5luc/blast)
T1 sequence (P51449 267-516): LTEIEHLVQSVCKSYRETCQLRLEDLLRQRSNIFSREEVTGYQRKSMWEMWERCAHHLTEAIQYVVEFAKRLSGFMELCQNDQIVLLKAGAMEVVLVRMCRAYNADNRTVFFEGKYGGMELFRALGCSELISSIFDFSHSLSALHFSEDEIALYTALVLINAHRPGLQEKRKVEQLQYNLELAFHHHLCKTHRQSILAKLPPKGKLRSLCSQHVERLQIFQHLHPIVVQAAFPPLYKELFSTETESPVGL

| Compound | EC50 [nM] |
| --- | --- |
| O=C(O)[C@H]1CC[C@H](C(=O)N2CC[C@](c3ccc(OCc4c(F)cccc4C(F)(F)F)cc3)(S(=O)(=O)c3ccccc3)C2)CC1 [Example 41, (1r,4r)-4-[(3R)-3-(benzenesulfonyl)-3-(4-{[2-fluoro-6-(trifluoromethyl)phenyl]methoxy}phenyl)pyrrolidine-1-carbonyl]cyclohexane-1-carboxylic acid] | 88 |
| O=C(N1CC[C@](c2ccc(OCc3c(F)cccc3C(F)(F)F)cc2)(S(=O)(=O)c2ccccc2)C1)C1(O)CCS(=O)(=O)CC1 [Example 40, 4-[(3R)-3-(benzenesulfonyl)-3-(4-{[2-fluoro-6-(trifluoromethyl)phenyl]methoxy}phenyl)pyrrolidine-1-carbonyl]-4-hydroxy-1λ^6-thiane-1,1-dione] | 18 |
| O=S(=O)(c1ccccc1)C1(c2ccc(OCc3ccccc3)cc2)CCCC1 [Example 6, 1-[1-(benzenesulfonyl)cyclopentyl]-4-(benzyloxy)benzene] | 130 |
| O=C(C1CCS(=O)(=O)CC1)N1CCC(c2ccc(OCc3c(Cl)cccc3Cl)cc2)(S(=O)(=O)c2ccccc2)C1 (centres unmarked) [Example 23, 4-[3-(benzenesulfonyl)-3-{4-[(2,6-dichlorophenyl)methoxy]phenyl}pyrrolidine-1-carbonyl]-1λ^6-thiane-1,1-dione] | 46 |
| O=S(=O)(c1ccccc1)C1(c2ccc(OCC3CCCCC3)cc2)CCCC1 [Example 10, 1-[1-(benzenesulfonyl)cyclopentyl]-4-(cyclohexylmethoxy)benzene] | 328 |
| O=C(N1CC[C@](c2ccc(OCc3c(Cl)cccc3C(F)(F)F)cc2)(S(=O)(=O)c2ccc(F)cc2)C1)C1(O)CCS(=O)(=O)CC1 [Example 46, 4-[(3R)-3-(4-{[2-chloro-6-(trifluoromethyl)phenyl]methoxy}phenyl)-3-(4-fluorobenzenesulfonyl)pyrrolidine-1-carbonyl]-4-hydroxy-1λ^6-thiane-1,1-dione] | 42 |
| O=C(C1CCS(=O)(=O)CC1)N1CCC(c2ccc(OCc3c(F)cccc3Cl)cc2)(S(=O)(=O)c2ccccc2)C1 (centres unmarked) [Example 29, 4-[3-(benzenesulfonyl)-3-{4-[(2-chloro-6-fluorophenyl)methoxy]phenyl}pyrrolidine-1-carbonyl]-1λ^6-thiane-1,1-dione] | 39 |
| O=C(O)[C@H]1CC[C@H](C(=O)N2CC[C@](c3ccc(OCc4c(Cl)cccc4Cl)cc3)(S(=O)(=O)c3ccccc3)C2)CC1 [Example 34, (1r,4r)-4-[(3R)-3-(benzenesulfonyl)-3-{4-[(2,6-dichlorophenyl)methoxy]phenyl}pyrrolidine-1-carbonyl]cyclohexane-1-carboxylic acid] | 275 |
| O=C(C1CCS(=O)(=O)CC1)N1CCC(c2ccc(OCc3ccc(F)cc3Cl)cc2)(S(=O)(=O)c2ccccc2)C1 (centres unmarked) [Example 31, 4-[3-(benzenesulfonyl)-3-{4-[(2-chloro-4-fluorophenyl)methoxy]phenyl}pyrrolidine-1-carbonyl]-1λ^6-thiane-1,1-dione] | 343 |
| O=C(C1CCS(=O)(=O)CC1)N1CCC(c2ccc(OCc3c(F)ccc(F)c3Cl)cc2)(S(=O)(=O)c2ccccc2)C1 (centres unmarked) [Example 27, 4-[3-(benzenesulfonyl)-3-{4-[(2-chloro-3,6-difluorophenyl)methoxy]phenyl}pyrrolidine-1-carbonyl]-1λ^6-thiane-1,1-dione] | 109 |
| NC(=O)N1CCC(C(=O)N2CCC(c3ccc(OCc4c(Cl)cccc4Cl)cc3)(S(=O)(=O)c3ccccc3)C2)CC1 (centres unmarked) [Example 25, 4-[3-(benzenesulfonyl)-3-{4-[(2,6-dichlorophenyl)methoxy]phenyl}pyrrolidine-1-carbonyl]piperidine-1-carboxamide] | 267 |
| O=C(O)[C@H]1CC[C@H](C(=O)N2CCC(c3ccc(OCc4c(Cl)cccc4Cl)cc3)(S(=O)(=O)c3ccccc3)C2)CC1 (some centres unmarked) [Example 24, (1r,4r)-4-[3-(benzenesulfonyl)-3-{4-[(2,6-dichlorophenyl)methoxy]phenyl}pyrrolidine-1-carbonyl]cyclohexane-1-carboxylic acid] | 552 |
| O=C(C1CCS(=O)(=O)C1)N1CCC(c2ccc(OCc3ccccc3)cc2)(S(=O)(=O)c2ccc(F)cc2)C1 (centres unmarked) [Example 19, 3-{3-[4-(benzyloxy)phenyl]-3-(4-fluorobenzenesulfonyl)pyrrolidine-1-carbonyl}-1λ^6-thiolane-1,1-dione] | 672 |
| O=C1NC(=O)C(CC(=O)N2CCC(c3ccc(OCc4ccccc4)cc3)(S(=O)(=O)c3ccc(F)cc3)C2)S1 (centres unmarked) [Example 20, 5-(2-{3-[4-(benzyloxy)phenyl]-3-(4-fluorobenzenesulfonyl)pyrrolidin-1-yl}-2-oxoethyl)-1,3-thiazolidine-2,4-dione] | 810 |
| O=C(Cc1ccncc1)N1CCC(c2ccc(OCc3ccccc3)cc2)(S(=O)(=O)c2cccc(C(F)(F)F)c2)C1 (centres unmarked) [Example 22, 1-{3-[4-(benzyloxy)phenyl]-3-[3-(trifluoromethyl)benzenesulfonyl]pyrrolidin-1-yl}-2-(pyridin-4-yl)ethan-1-one] | 514 |
| O=C(Cc1ccncc1)N1CCC(c2ccc(OCc3c(Cl)cccc3Cl)cc2)(S(=O)(=O)c2ccccc2)C1 (centres unmarked) [Example 26, 1-[3-(benzenesulfonyl)-3-{4-[(2,6-dichlorophenyl)methoxy]phenyl}pyrrolidin-1-yl]-2-(pyridin-4-yl)ethan-1-one] | 77 |
| O=S(=O)(c1ccc(F)cc1)C1(c2ccc(OCc3ccccc3F)cc2)CCCC1 [Example 7, 1-[1-(4-fluorobenzenesulfonyl)cyclopentyl]-4-[(2-fluorophenyl)methoxy]benzene] | 723 |
| O=C(Cn1ccnn1)N1CCC(c2ccc(OCc3ccccc3)cc2)(S(=O)(=O)c2ccc(F)cc2)C1 (centres unmarked) [Example 17, 1-{3-[4-(benzyloxy)phenyl]-3-(4-fluorobenzenesulfonyl)pyrrolidin-1-yl}-2-(1H-1,2,3-triazol-1-yl)ethan-1-one] | 526 |
| O=S(=O)(c1ccccc1)C1(c2ccc(OCc3ccccc3F)cc2)CCCC1 [Example 13, 1-[1-(benzenesulfonyl)cyclopentyl]-4-[(2-fluorophenyl)methoxy]benzene] | 203 |
| O=S(=O)(c1ccccc1)C1(c2ccc(OCCC3CC3)cc2)CCCC1 [Example 14, 1-[1-(benzenesulfonyl)cyclopentyl]-4-(2-cyclopropylethoxy)benzene] | 423 |
| O=C(C1CCS(=O)(=O)CC1)N1CCC(c2ccc(OCc3ccccc3C(F)(F)F)cc2)(S(=O)(=O)c2ccccc2)C1 (centres unmarked) [Example 32, 4-[3-(benzenesulfonyl)-3-(4-{[2-(trifluoromethyl)phenyl]methoxy}phenyl)pyrrolidine-1-carbonyl]-1λ^6-thiane-1,1-dione] | 84 |
| O=C(C1CCS(=O)(=O)CC1)N1CCC(c2ccc(OCc3c(F)cccc3C(F)(F)F)cc2)(S(=O)(=O)c2ccccc2)C1 (centres unmarked) [Example 30, 4-[3-(benzenesulfonyl)-3-(4-{[2-fluoro-6-(trifluoromethyl)phenyl]methoxy}phenyl)pyrrolidine-1-carbonyl]-1λ^6-thiane-1,1-dione] | 28 |
| O=C(C1CCS(=O)(=O)CC1)N1CC[C@](c2ccc(OCc3c(Cl)cccc3Cl)cc2)(S(=O)(=O)c2ccc(F)cc2)C1 [Example 36, 4-[(3R)-3-{4-[(2,6-dichlorophenyl)methoxy]phenyl}-3-(4-fluorobenzenesulfonyl)pyrrolidine-1-carbonyl]-1λ^6-thiane-1,1-dione] | 17 |

From patent US12012374B2, “Agonists of ROR GAMMAt” (BRISTOL-MYERS SQUIBB COMPANY, priority 2019, dated 2024)
